One series deals with VEGFR-2. To be noted: cited from earlier work.
Another series concerns PDGFR. The note with it: cited from earlier work.
The next series deals with T1, recombinant human MAO-B (Homo sapiens, UniProt P27338).
T1 construct: purchased Sigma-Aldrich
Nature of the series: MAO-Glo MAO-B inhibition assay. In kind it is biochemical. The method, then:
The MAO-B inhibition activity of SU4312 was determined by MAO-Glo™ Assay kit (Promega Inc., USA). The recombinant human MAO-B enzymes and selegiline used in this study were purchased from Sigma-Aldrich. Concentrations of SU4312 tested were 0.01, 0.03, 0.1, 0.3, 1.0 and 10 μM. Selegiline, a known MAO-B inhibitor, was used as positive control at 0.001, 0.01, 0.1, 1, 10 μM. Briefly, SU4312 and selegiline were incubated in 96-well opaque white plates with MAO substrate and rhMAO-B (0.25 mg protein/mL final concentration). Reactions were started by addition of rhMAO-B. Samples were incubated for 1 hour at room temperature. Reactions were terminated by addition of luciferin detection reagent, and samples were incubated an additional 20 minutes to allow development of luciferase- and esterase-dependent luminescence. Relative luminescence was determined with a plate luminometer and was corrected for background using no-MAO-B controls. Results are presented as percent of vehicle (total MAO-B activity).

Another series relates to CGNs. Kind of series: Hoechst 33342 staining of CGNs after MPP+. The note with it: 20 μM, 35 μM MPP+. It is filed as cell-based, rat. The method, then: Chromatin condensation was detected by nucleus staining with Hoechst 33342 as described by Li et al., 2005. CGNs (2.7×10^6 cells) grown in a 35-mm dish were washed with ice-cold phosphate-buffered saline (PBS) and fixed with 4% formaldehyde in PBS. The cells were then stained with Hoechst 33342 (5 μg/ml) for 5 min at 4° C. The nuclei were visualized using a fluorescence microscope at ×400 magnification.
Chromatin condensation was detected by staining the cell nucleus with Hoechst 33342 as described by Li et al., 2005. CGNs (2.7×10^6 cells) grown in a 35-mm dish were washed with ice-cold phosphate-buffered saline (PBS), fixed with 4% formaldehyde in PBS, membrane-permeabilized in 0.1% Triton X-100 and blocked in 1% BSA. Cells were then exposed to a primary nNOS antibody (Santa Cruz) overnight at 4° C. followed by incubation at room temperature with an Alexa Fluor 488-conjugated secondary antibody. After immunostaining, cells were then stained with Hoechst 33342 (5 μg/ml) at 4° C. for 5 min. Images were acquired using a fluorescence microscope at ×100 magnification.
To quantify the percentage of apoptotic nuclei in each group, photos of each dish (n=3 dishes in each group for three independent experiments) were taken at five random fields and the numbers of apoptotic nuclei and total nuclei (n=300) were counted, and the percentage of apoptotic nuclei was averaged.

The test system of the next series is zebrafish. Kind of series: Toxicity to zebrafish. In kind it is in vivo. To be noted: SU5416 10 μM, VRI 3 μM, SU4312 up to 30 μM. Here is the method: Wild-type zebrafish (AB strain) and Tg (fli-1:EGFP) transgenic zebrafish were maintained as described in the Zebrafish Handbook (Westerfield, 1993). Zebrafish embryos were generated by natural pair-wise mating (3-12 months old) and raised at 28.5° C. in embryo medium (13.7 mM NaCl, 540 μM KCl, pH 7.4, 25 μM Na2HPO4, 44 μM KH2PO4, 300 μM CaCl2, 100 μM MgSO4, 420 μM NaHCO3, pH 7.4). […] An equal concentration of DMSO in embryo medium was used as vehicle control in each experiment.
Wild-type zebrafish (AB strain) and Tg(fli-1:EGFP) transgenic zebrafish were maintained as described in the Zebrafish Handbook (Westerfield, 1993). Zebrafish embryos were generated by natural pair-wise mating (3-12 months old) and were raised at 28.5° C. in embryo medium (13.7 mM NaCl, 540 μM KCl, pH 7.4, 25 μM Na2HPO4, 44 μM KH2PO4, 300 μM CaCl2, 100 μM MgSO4, 420 μM NaHCO3, pH 7.4). […] Equal concentration of DMSO in embryo medium was used as vehicle control in each experiment.

The test system of another series is ERK and Akt pathways. Kind of series: Western blot of phospho-Akt and phospho-ERK after MPP+. To be noted: data not shown. It is filed as cell-based.
The test system of a further series is iNOS protein expression. Nature of the series: Western blot of iNOS protein in CGNs after MPP+. It is filed as cell-based, rat. The note with it: 20 μM, 35 μM MPP+. The method, then: Briefly, neurons were harvested in a cell lysis buffer. Protein was separated on SDS-polyacrylamide gel and transferred onto polyvinyldifluoride membranes. After membrane blocking, proteins were detected using primary antibodies. After incubation at 4° C. overnight, signals were obtained after binding to chemiluminescent secondary antibodies. Blots were developed using an ECL plus kit (Amersham Bioscience, Aylesbury, UK) and exposed to Kodak autoradiographic films. All data were from three independent experiments and were expressed as the ratio to optical density (OD) values of the corresponding controls for statistical analyses.
On the technique in general: A western blot detects proteins with antibodies after separation by electrophoresis.

The test system of series [1] is nNOS knockdown PC12 cells. Nature of the series: MPP+ in ShRNA-mediated nNOS knockdown PC12 cells. It is filed as cell-based, rat. To be noted: 20 μM SU5416 2 hours, then 1 mM MPP+ 24 hours. Here is the method: The assay was performed according to the specifications of the manufacturer (MTT kit I; Roche Applied Science). […] After the incubation, 100 μl of the solvating solution (0.01 N HCl in 10% SDS solution) was added to each well for 16-20 hours. The absorbance of the samples was measured at a wavelength of 570 nm with 655 nm as a reference wavelength. Unless otherwise indicated, the extent of MTT conversion in cells exposed to MPP^+ is expressed as a percentage of the control. Cytotoxicity was determined by measuring the release of lactate dehydrogenase (LDH). Briefly, cells were precipitated by centrifugation at 500 g for 5 min at room temperature, 50 μl of the supernatants was transferred into new wells, and LDH was determined using the in vitro toxicology assay kit (Roche). The absorbance of the samples was measured at a wavelength of 490 nm with 655 nm as a reference wavelength. ShRNA against rat nNOS was designed according to […] et al, 2009. […] NM_052799), was used to generate shRNA. […] Sense and antisense oligonucleotides were then annealed and cloned into pG418-GFP vector to express shRNA directed against nNOS under the control of the U6 promoter (GenePharma, Shanghai, China). A negative control shRNA (ShNC) with the same nucleotide composition but lacks significant sequence homology to the genome was also used in the experiments. […]

Structures are written as SMILES. Like-named read-outs stand apart in the source and are kept apart here.

T1 sequence (P27338 whole entry): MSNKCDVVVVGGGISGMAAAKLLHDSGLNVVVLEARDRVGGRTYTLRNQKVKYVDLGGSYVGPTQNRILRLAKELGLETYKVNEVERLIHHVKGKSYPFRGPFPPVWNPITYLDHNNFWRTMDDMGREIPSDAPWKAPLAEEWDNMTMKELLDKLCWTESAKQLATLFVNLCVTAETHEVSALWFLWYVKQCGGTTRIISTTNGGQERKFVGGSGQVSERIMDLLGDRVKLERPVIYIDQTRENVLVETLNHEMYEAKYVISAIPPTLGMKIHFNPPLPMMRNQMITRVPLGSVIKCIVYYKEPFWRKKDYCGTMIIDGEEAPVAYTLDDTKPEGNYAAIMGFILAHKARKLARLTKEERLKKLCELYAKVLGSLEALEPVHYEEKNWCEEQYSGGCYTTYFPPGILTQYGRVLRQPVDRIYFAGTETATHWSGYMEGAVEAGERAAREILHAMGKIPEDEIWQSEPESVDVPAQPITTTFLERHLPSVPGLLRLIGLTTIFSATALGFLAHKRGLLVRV

As a reminder, the IC50 is the point on the concentration scale where inhibition reaches its midpoint. Turning to `Clc1ccc(Nc2nnc(Cc3ccncc3)c3ccccc23)cc1` [PTK787/ZK222584], the IC50 in the series with VEGFR-2 is […]; in the series with VEGFR-2 (listed as PTK787), […]; in the series with PDGFR, […].
Regarding `CN(C)c1ccc(C=C2C(=O)Nc3ccccc32)cc1` [SU4312, 3-[4-(dimethylamino)benzylidenyl]indolin-2-one], the “MAO-B activity in vitro” value at recombinant human MAO-B (figure legends) is “inhibited monoamine oxidase-B (MAO-B) activity in a concentration dependent manner”. Moreover, the IC50 on recombinant human MAO-B (rhMAO-B, 1 hour at room temperature) was around 200 nM. Besides, the “nuclear condensation / apoptotic nuclei (Hoechst 33342)” value in the series on CGNs is “significantly reversed nuclear condensation induced by MPP^+”. Moreover, the toxicity to zebrafish entry in the series with zebrafish was “did not induce any neurotoxicity”.
As for `Cc1cc(C)c(/C=C2\C(=O)Nc3ccccc32)[nH]1` [SU5416, (3Z)-3-[(3,5-dimethyl-1H-pyrrol-2-yl)methylidene]-1,3-dihydro-2H-indol-2-one], the “activities of phospho-Akt and phospho-ERK” value in the series with ERK and Akt pathways is on record as “could neither inhibit the activation of pro-apoptotic ERK pathway, nor reverse the decrease of pro-survival Akt pathway”. Also, the “MPP+-elevated expression of iNOS protein” value in the series with iNOS protein expression is recorded as “could not affect the elevated expression of iNOS by MPP^+”. For the same molecule, the “MPP+-induced cell death in nNOS knockdown PC12 cells (MTT, LDH)” value in series [1] is “no longer able to inhibit MPP^+-induced cell death”. For the same molecule, the “nuclear condensation / apoptotic nuclei (Hoechst 33342)” value with CGNs is given as “significantly reversed neuronal apoptosis induced by MPP^+”. Also, the toxicity to zebrafish result in the series on zebrafish is “showed toxicity to zebrafish”.

These data come from patent US9486440B2, “Uses of indole-ketones or indolidones as neuro-protective drugs” (UNIVERSITY OF MACAU, priority 2011, dated 2016).
